Measurements published in patent US10933056B2, “3-(1H-pyrazol-4-yl)pyridine allosteric modulators of the M4 muscarinic acetylcholine receptor” (Merck Sharp & Dohme Corp., priority 2015, dated 2021).

Biological target: T1, human M4 muscarinic acetylcholine receptor (Homo sapiens, UniProt P08173)
T1 construct: expressed in transfected cells; host or cells: CHO-K1
T1 sequence (P08173 1-479): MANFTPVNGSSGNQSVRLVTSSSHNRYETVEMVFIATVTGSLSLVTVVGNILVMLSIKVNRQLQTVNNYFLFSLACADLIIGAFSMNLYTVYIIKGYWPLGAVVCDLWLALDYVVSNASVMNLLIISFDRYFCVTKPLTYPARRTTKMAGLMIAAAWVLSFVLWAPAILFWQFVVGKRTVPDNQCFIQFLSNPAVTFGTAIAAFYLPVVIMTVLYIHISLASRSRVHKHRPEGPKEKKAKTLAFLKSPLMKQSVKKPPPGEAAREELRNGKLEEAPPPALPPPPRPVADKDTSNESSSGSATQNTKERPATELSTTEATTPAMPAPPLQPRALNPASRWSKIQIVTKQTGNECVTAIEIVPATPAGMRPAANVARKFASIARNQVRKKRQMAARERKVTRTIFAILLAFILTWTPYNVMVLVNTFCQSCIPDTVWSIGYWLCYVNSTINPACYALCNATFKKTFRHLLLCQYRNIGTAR
Experiment: human FLIPR-based M4 PAM assay (calcium mobilization in CHO-K1 cells with human M4 receptor and Gαqi5)
Assay type: cell-based
Conditions: inflection point of dose response curve, acetylcholine at 20% of maximum response, FLIPR Tetra, read-out: M4 PAM IP
Experimental: (§1) In a typical experiment the M4 muscarinic acetylcholine receptor modulating activity of the compounds of the present invention was determined in accordance with the following experimental method. CHO-K1 cells stably transfected with human M4 receptor and chimeric G-protein Gαqi5 (Coward P, et al., Analytical Biochemistry, 270:242-248 (1999)) are thawed from liquid N2 storage, resuspended in growth medium, plated in black, clear bottom 384 well plates, and incubated 16-20 hours at 37° C., 5% CO2. On the day of assay, growth medium is removed, the cells are washed 2 times with wash buffer, and cells are incubated in dye loading buffer at 37° C., 5% CO2 for ˜1 hour. Following dye loading the cell plates are placed in a FLIPR Tetra instrument and while monitoring dye fluorescence (excitation […]), 10 uL of test substance at increasing concentrations is added, and fluorescence values are recorded for 4 min. Next, 10 uL of acetylcholine is added (final concentration calculated so as to achieve 20% of the maximum acetycholine response), and the fluorescence reading is continued for 3.5 min. In some cases, a third addition of acetylcholine (final concentration calculated to achieve 70% of the maximal acetylcholine response) is performed. The resulting dose response curves are fit to a 4 parameter logistic equation and the final result is determined as the inflection point (IP) of the curve
as §1, with “CHO-K1” for “In a typical experiment the M4 muscarinic acetylcholine receptor modulating activity of the compounds of the present invention was determined in accordance with the following experimental method. CHO-K1”, “Gαqi5” for “Gαqi5 (Coward P, et al., Analytical Biochemistry, 270:242-248 (1999))”, “performed.” for “performed. The resulting dose response curves are fit to a 4 parameter logistic equation and the final result is determined as the inflection point (IP) of the curve”

SMILES | EC50 [nM]
CC1(Cn2cc(-c3cc4c(nc3-c3cnc5c(c3)C(=O)N(CC3CC3)C5)[C@H](F)CC4)cn2)CCCC1 (single isomer, unassigned) [Example 1A] | 67
CN1Cc2ccc(-c3nc(C#N)ccc3-c3cnn(CC4(C)CCCC4)c3)cc2C1=O [Example 2, 6-(2-Methyl-3-oxoisoindolin-5-yl)-5-(1-((1-methylcyclopentyl)methyl)-1H-pyrazol-4-yl)picolinonitrile] | 16
Cc1ccc(-c2cnn(CC3CCCC3)c2)c(-c2ccc3c(c2)C(=O)N(CCc2ccccc2)C3)n1 [Example 4, 6-(3-(1-(cyclopentylmethyl)-1H-pyrazol-4-yl)-6-methylpyridin-2-yl)-2-phenethylisoindolin-1-one] | 37
Cc1ccc(-c2cnn(CC3CCCC3)c2)c(-c2ccc3c(c2)C(=O)N(CC2CCCO2)C3)n1 (stereo not shown) [Example 5, 6-(3-(1-(cyclopentylmethyl)-1H-pyrazol-4-yl)-6-methylpyridin-2-yl)-2-((tetrahydrofuran-2-yl)methyl)isoindolin-1-one] | 20
Cc1ccc(-c2cnn(CC3CCCC3)c2)c(-c2ccc3c(c2)C(=O)N(C2CC2)C3)n1 [Example 6, 6-(3-(1-(cyclopentylmethyl)-1H-pyrazol-4-yl)-6-methylpyridin-2-yl)-2-cyclopropylisoindolin-1-one] | 20
O=C1c2cc(-c3nccc(F)c3-c3cnn(CC4CCCC4)c3)ccc2CN1CC1CC1 [Example 7, 6-(3-(1-(cyclopentylmethyl)-1H-pyrazol-4-yl)-4-fluoropyridin-2-yl)-2-(cyclopropylmethyl)isoindolin-1-one] | 22
O=C1c2cc(-c3ncccc3-c3cnn(CC4CCCC4)c3F)ccc2CN1CC1CC1 [Example 8, 6-(3-(1-(cyclopentylmethyl)-5-fluoro-1H-pyrazol-4-yl)pyridin-2-yl)-2-(cyclopropylmethyl)isoindolin-1-one] | 142
Cc1ccc(-c2cnn(CC3CCCC3)c2F)c(-c2ccc3c(c2)C(=O)N(CC2CC2)C3)n1 [Example 9, 6-(3-(1-(cyclopentylmethyl)-5-fluoro-1H-pyrazol-4-yl)-6-methylpyridin-2-yl)-2-(cyclopropylmethyl)isoindolin-1-one] | 12
CNC(=O)c1ccc(-c2cnn(CC3CCCC3)c2)c(-c2ccc3c(c2)C(=O)N(C2CC2)C3)n1 [Example 13, 5-(1-(cyclopentylmethyl)-1H-pyrazol-4-yl)-6-(2-cyclopropyl-3-oxoisoindolin-5-yl)-N-methylpicolinamide] | 613
NC(=O)c1ccc(-c2cnn(CC3CCCC3)c2)c(-c2ccc3c(c2)C(=O)N(CC2CC2)C3)n1 [Example 15, 5-(1-(cyclopentylmethyl)-1H-pyrazol-4-yl)-6-(2-(cyclopropylmethyl)-3-oxoisoindolin-5-yl)picolinamide] | 94
CN1Cc2ccc(-c3nc(C(N)=O)ccc3-c3cnn(CC4CCCC4)c3)cc2C1=O [Example 17, 5-(1-(cyclopentylmethyl)-1H-pyrazol-4-yl)-6-(2-methyl-3-oxoisoindolin-5-yl)picolinamide] | 278
N#Cc1ccc(-c2cnn(CC3CCCC3)c2)c(-c2ccc3c(c2)C(=O)N(C2CC2)C3)n1 [Example 19, 5-(1-(cyclopentylmethyl)-1H-pyrazol-4-yl)-6-(2-cyclopropyl-3-oxoisoindolin-5-yl)picolinonitrile] | 9
N#Cc1ccc(-c2cnn(CC3CCCC3)c2)c(-c2ccc3c(c2)C(=O)NC3)n1 [Example 20, 5-(1-(cyclopentylmethyl)-1H-pyrazol-4-yl)-6-(3-oxoisoindolin-5-yl)picolinonitrile] | 9
O=C1c2cc(-c3nc(F)ccc3-c3cnn(CC4CCCC4)c3)ccc2CN1CC1CC1 [Example 21, 6-(3-(1-(cyclopentylmethyl)-1H-pyrazol-4-yl)-6-fluoropyridin-2-yl)-2-(cyclopropylmethyl)isoindolin-1-one] | 22
CN1Cc2ccc(-c3nc(F)ccc3-c3cnn(CC4CCCC4)c3)cc2C1=O [Example 22, 6-(3-(1-(cyclopentylmethyl)-1H-pyrazol-4-yl)-6-fluoropyridin-2-yl)-2-methylisoindolin-1-one] | 28
O=C1c2cc(-c3nc(F)ccc3-c3cnn(CC4CCCC4)c3)ccc2CN1C1CC1 [Example 23, 6-(3-(1-(cyclopentylmethyl)-1H-pyrazol-4-yl)-6-fluoropyridin-2-yl)-2-cyclopropylisoindolin-1-one] | 34
CC1(Cn2cc(-c3cccnc3-c3ccc4c(c3)C(=O)N(C3CC3)C4)cn2)CCCC1 [Example 26, 2-cyclopropyl-6-(3-(1-((1-methylcyclopentyl)methyl)-1H-pyrazol-4-yl)pyridin-2-yl)isoindolin-1-one] | 32

Now from value to molecule:

EC50 [nM] | SMILES
75 | CC1(Cn2cc(-c3cc4c(nc3-c3cnc5c(c3)C(=O)N(CC3CC3)C5)[C@@H](F)CC4)cn2)CCCC1 (single isomer, unassigned) [Example 1B]
39 | Cc1cc(-c2cnn(CC3(C)CCCC3)c2)c(-c2cnc3c(c2)C(=O)N(C)C3)nc1F [Example 1, 3-(6-Fluoro-5-methyl-3-(1-((1-methylcyclopentyl)methyl)-1H-pyrazol-4-yl)pyridin-2-yl)-6-methyl-6,7-dihydro-5H-pyrrolo[3,4-b]pyridin-5-one]
38 | Cc1ccc(-c2cnn(CC3CCCC3)c2)c(-c2ccc3c(c2)C(=O)N(CC2CC2)C3)n1 [Example 3, 6-(3-(1-(cyclopentylmethyl)-1H-pyrazol-4-yl)-6-methylpyridin-2-yl)-2-(cyclopropylmethyl)isoindolin-1-one]
54 | CC1(Cn2cc(-c3cc4c(nc3-c3cnc5c(c3)C(=O)N(CC3CC3)C5)CCC4)cn2)CCCC1 [Example 10, 6-(cyclopropylmethyl)-3-(3-(1-((1-methylcyclopentyl)methyl)-1H-pyrazol-4-yl)-6,7-dihydro-5H-cyclopenta[b]pyridin-2-yl)-6,7-dihydro-5H-pyrrolo[3,4-b]pyridin-5-one]
11 | CN1Cc2ccc(-c3nc(C#N)ccc3-c3cnn(CC4CCCC4)c3)cc2C1=O [Example 11, 5-(1-(cyclopentylmethyl)-1H-pyrazol-4-yl)-6-(2-methyl-3-oxoisoindolin-5-yl)picolinonitrile]
348 | CNC(=O)c1ccc(-c2cnn(CC3CCCC3)c2)c(-c2ccc3c(c2)C(=O)N(CC2CC2)C3)n1 [Example 12, 5-(1-(cyclopentylmethyl)-1H-pyrazol-4-yl)-6-(2-(cyclopropylmethyl)-3-oxoisoindolin-5-yl)-N-methylpicolinamide]
687 | CNC(=O)c1ccc(-c2cnn(CC3CCCC3)c2)c(-c2ccc3c(c2)C(=O)N(C)C3)n1 [Example 14, 5-(1-(cyclopentylmethyl)-1H-pyrazol-4-yl)-N-methyl-6-(2-methyl-3-oxoisoindolin-5-yl)picolinamide]
297 | NC(=O)c1ccc(-c2cnn(CC3CCCC3)c2)c(-c2ccc3c(c2)C(=O)N(C2CC2)C3)n1 [Example 16, 5-(1-(cyclopentylmethyl)-1H-pyrazol-4-yl)-6-(2-cyclopropyl-3-oxoisoindolin-5-yl)picolinamide]
8 | N#Cc1ccc(-c2cnn(CC3CCCC3)c2)c(-c2ccc3c(c2)C(=O)N(CC2CC2)C3)n1 [Example 18, 5-(1-(cyclopentylmethyl)-1H-pyrazol-4-yl)-6-(2-(cyclopropylmethyl)-3-oxoisoindolin-5-yl)picolinonitrile]
20 | CC1(Cn2cc(-c3cccnc3-c3ccc4c(c3)C(=O)NC4)cn2)CCCC1 [Example 24, 6-(3-(1-((1-methylcyclopentyl)methyl)-1H-pyrazol-4-yl)pyridin-2-yl)isoindolin-1-one]
21 | CN1Cc2ccc(-c3ncccc3-c3cnn(CC4(C)CCCC4)c3)cc2C1=O [Example 25, 2-methyl-6-(3-(1-((1-methylcyclopentyl)methyl)-1H-pyrazol-4-yl)pyridin-2-yl)isoindolin-1-one]
